Test results reported in patent US9169482B2, “Method for synthesizing cDNA” (TAKARA BIO INC., priority 2010, dated 2015).

Biological target: T1, DNaseI (Bos taurus, UniProt P00639)
T1 construct: purchased TAKARA BIO INC
Assay: Degradation of mouse genomic DNA with DNaseI in reaction solutions of Table 3, agarose gel electrophoresis (Example 2)
Type: biochemical
Conditions: 5 U DNaseI, 200 ng mouse genomic DNA
Method: In order to construct a reaction composition completely inhibiting endoDNase activity, six kinds of 20 μL-reaction solutions (Reaction Solutions 1 to 6) containing 5 U DNaseI (TAKARA BIO INC.), 200 ng mouse genomic DNA, and the components as listed in Table 3 were prepared. In addition, six kinds of 20 μL-reaction solutions having the same compositions except that DNaseI was not contained were prepared. These reaction solutions were incubated at 37° C. for 15 minutes, and thereafter incubated at 85° C. for 5 seconds. Next, each of the reaction solutions was subjected to agarose gel electrophoresis, thereby confirming degradation of mouse genomic DNA with DNaseI.
It could be confirmed from this matter that DNaseI activity was inhibited in Reaction Solutions 3 and 4. […] It is shown from this matter that adjustment of the Mg concentration can further inhibit DNaseI activity other than the addition of KCl and (NH4)2SO4 or an increase in the DTT concentration.

T1 sequence (P00639 23-282): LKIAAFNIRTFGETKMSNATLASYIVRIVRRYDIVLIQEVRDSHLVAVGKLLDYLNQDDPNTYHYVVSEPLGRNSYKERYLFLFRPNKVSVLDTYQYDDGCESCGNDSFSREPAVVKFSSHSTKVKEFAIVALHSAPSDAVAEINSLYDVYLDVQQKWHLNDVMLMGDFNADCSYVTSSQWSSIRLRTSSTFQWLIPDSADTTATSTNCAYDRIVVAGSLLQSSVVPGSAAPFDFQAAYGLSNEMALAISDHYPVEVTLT

Compound: N.N.O=S(=O)(O)O [(NH4)2SO4, ammonium sulfate]
- Inhibition of DNaseI activity: inhibited DNaseI activity in a concentration-dependent manner
